Measured values: patent US10588317B2, “Isoxazoline-substituted benzamides and analogues as insecticides” (priority 2015, dated 2020)

Legend:
Type in all cases: in vivo
[1] = test system: Euschistus heros; assay: Euschistus heros (neotropical brown stink bug), sprayed soybean leaves; settings: 120 h, application rate 200 ppm, N2 nymphs, 5 days after infestation, read-out: effect in at least one of the two categories (mortality or growth inhibition)
Procedure, shortened: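 Soybean leaves on agar sprayed with aqueous dilutions of DMSO stocks, dried, then infested with N2 nymphs. Mortality and growth inhibition scored against untreated samples 5 days after infestation; application rate 200 ppm.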

[2] = test system: Spodoptera littoralis; assay: Spodoptera littoralis (Egyptian cotton leaf worm), uptake by lettuce roots from agar; settings: 144 h, read-out: effect in at least one of the three categories (mortality, anti-feeding, or growth inhibition);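 note: 12.5 ppm test rate in agar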
Procedure, shortened: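 Compound from 10'000 ppm DMSO stocks was mixed into agar, and lettuce grew on it for 7 days to take it up via roots. Cut leaves were infested with Spodoptera eggs; mortality, anti-feedant effect and growth inhibition scored 6 days later versus untreated samples.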

[3] = test system: Myzus persicae; assay: Myzus persicae (green peach aphid): feeding/contact activity; settings: 144 h, application rate 200 ppm, aphid population of mixed ages, 6 days after infestation, read-out: mortality
Experimental: (§1) Sunflower leaf discs were placed onto agar in a 24-well microtiter plate and sprayed with aqueous test solutions prepared from 10'000 ppm DMSO stock solutions. After drying, the leaf discs were infested with an aphid population of mixed ages. The samples were assessed for mortality 6 days after infestation.

[4] = test system: Diabrotica balteata; assay: Diabrotica balteata (corn root worm), sprayed maize sprouts; settings: 96 h, application rate 200 ppm, L2 larvae, 4 days after infestation, read-out: effect in at least one of the two categories (mortality or growth inhibition)
Procedure, shortened: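 Maize sprouts on agar sprayed with aqueous dilutions of DMSO stocks, dried, then infested with L2 larvae (6–10 per well). Mortality and growth inhibition scored against untreated controls 4 days after infestation, at 200 ppm application rate.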

[5] = test system: Thrips tabaci; assay: Thrips tabaci (onion thrips): feeding/contact activity; settings: 144 h, application rate 200 ppm, Thrips population of mixed ages, 6 days after infestation, read-out: mortality
Experimental: as §1, with “on” for “onto”, “in” for “in a”, “plates” for “plate”, “drying” for “drying,”, “a Thrips” for “an aphid”

[6] = test system: Plutella xylostella; assay: Plutella xylostella (diamond back moth), artificial diet; settings: 120 h, application rate 200 ppm, L2 larvae, 5 days after infestation, read-out: effect in at least one of the two categories (mortality or growth inhibition)
Procedure, shortened: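 Artificial diet in 24-well plates treated with aqueous test solutions made from 10'000 ppm DMSO stocks, dried, then infested with L2 larvae (10 to 15 per well). Mortality and growth inhibition scored against untreated samples 5 days after infestation; activity cut-off at least 80% in either category at 200 ppm.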

[7] = test system: Spodoptera littoralis; assay: Spodoptera littoralis (Egyptian cotton leaf worm), sprayed cotton leaf discs; settings: foliar, 72 h, application rate 200 ppm, L1 larvae, 3 days after infestation, read-out: control (mortality, anti-feeding effect, growth inhibition)
Procedure, shortened: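 Cotton leaf discs on agar sprayed with aqueous test solutions made from 10'000 ppm DMSO stock; after drying, infested with five L1 larvae. Mortality, anti-feeding and growth inhibition scored versus untreated samples 3 days after infestation; control counted when any category exceeds untreated.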

[8] = test system: Tetranychus urticae; assay: Tetranychus urticae (two-spotted spider mite): feeding/contact activity; settings: 192 h, application rate 200 ppm, mixed population (mobile stages), 8 days after infestation, read-out: mortality
Experimental: Bean leaf discs on agar in 24-well microtiter plates were sprayed with aqueous test solutions prepared from 10'000 ppm DMSO stock solutions. After drying the leaf discs were infested with a mite population of mixed ages. The samples were assessed for mortality on mixed population (mobile stages) 8 days after infestation.

CN(C)S(=O)(=O)N1C[C@@H](NC(=O)c2ccc(C3=NO[C@@](c4cc(Cl)c(Cl)c(Cl)c4)(C(F)(F)F)C3)cc2Cl)CO1 [Compound A109, 2-chloro-N-[(4R)-2-(dimethylsulfamoyl)isoxazolidin-4-yl]-4-[(5S)-5-(3,4,5-trichlorophenyl)-5-(trifluoromethyl)-4H-isoxazol-3-yl]benzamide]
≥ 80%: percent effect (mortality or growth inhibition) at 200 ppm [1] | percent control (mortality, anti-feedant effect or growth inhibition) at 12.5 ppm [2] | mortality at 200 ppm [3] | percent effect (mortality or growth inhibition) at 200 ppm [4] | mortality at 200 ppm [5] | percent effect (mortality or growth inhibition) at 200 ppm [6] | mortality at 200 ppm [7] | mortality at 200 ppm [8]

Cc1cc(C2=NOC(c3cc(Cl)c(Cl)c(Cl)c3)(C(F)(F)F)C2)ccc1C(=O)NC1CON(S(C)(=O)=O)C1 (stereo not shown) [Compound A61]
≥ 80%: percent effect (mortality or growth inhibition) at 200 ppm [1] | percent control (mortality, anti-feedant effect or growth inhibition) at 12.5 ppm [2] | mortality at 200 ppm [3] | percent effect (mortality or growth inhibition) at 200 ppm [4] | mortality at 200 ppm [5] | percent effect (mortality or growth inhibition) at 200 ppm [6] | mortality at 200 ppm [7] | mortality at 200 ppm [8]

CCNS(=O)(=O)N1C[C@@H](NC(=O)c2ccc(C3=NO[C@@](c4cc(Cl)cc(C(F)(F)F)c4)(C(F)(F)F)C3)cc2C)CO1 [Compound A134]
≥ 80%: percent effect (mortality or growth inhibition) at 200 ppm [1] | percent control (mortality, anti-feedant effect or growth inhibition) at 12.5 ppm [2] | mortality at 200 ppm [3] | percent effect (mortality or growth inhibition) at 200 ppm [4] | mortality at 200 ppm [5] | percent effect (mortality or growth inhibition) at 200 ppm [6] | mortality at 200 ppm [7] | mortality at 200 ppm [8]

C#CCNS(=O)(=O)N1C[C@@H](NC(=O)c2ccc(C3=NO[C@@](c4cc(Cl)cc(Cl)c4)(C(F)(F)F)C3)cc2Cl)CO1 [Compound A158]
≥ 80%: percent effect (mortality or growth inhibition) at 200 ppm [1] | percent control (mortality, anti-feedant effect or growth inhibition) at 12.5 ppm [2] | mortality at 200 ppm [3] | percent effect (mortality or growth inhibition) at 200 ppm [4] | mortality at 200 ppm [5] | percent effect (mortality or growth inhibition) at 200 ppm [6] | mortality at 200 ppm [7] | mortality at 200 ppm [8]

CCN(C)S(=O)(=O)N1C[C@@H](NC(=O)c2ccc(C3=NO[C@@](c4cc(Cl)cc(C(F)(F)F)c4)(C(F)(F)F)C3)cc2C)CO1 [Compound A141]
≥ 80%: percent effect (mortality or growth inhibition) at 200 ppm [1] | percent control (mortality, anti-feedant effect or growth inhibition) at 12.5 ppm [2] | mortality at 200 ppm [3] | percent effect (mortality or growth inhibition) at 200 ppm [4] | mortality at 200 ppm [5] | percent effect (mortality or growth inhibition) at 200 ppm [6] | mortality at 200 ppm [7] | mortality at 200 ppm [8]

Cc1cc(C2=NO[C@@](c3cc(Cl)c(Cl)c(Cl)c3)(C(F)(F)F)C2)ccc1C(=O)N[C@H]1CON(S(N)(=O)=O)C1 [Compound A68, 2-methyl-N-[(4R)-2-sulfamoylisoxazolidin-4-yl]-4-[(5S)-5-(3,4,5-trichlorophenyl)-5-(trifluoromethyl)-4H-isoxazol-3-yl]benzamide]
≥ 80%: percent effect (mortality or growth inhibition) at 200 ppm [1] | percent control (mortality, anti-feedant effect or growth inhibition) at 12.5 ppm [2] | mortality at 200 ppm [3] | percent effect (mortality or growth inhibition) at 200 ppm [4] | mortality at 200 ppm [5] | percent effect (mortality or growth inhibition) at 200 ppm [6] | mortality at 200 ppm [7] | mortality at 200 ppm [8]

CS(=O)(=O)N1C[C@@H](NC(=O)c2ccc(C3=NO[C@@](c4cc(Cl)cc(Cl)c4)(C(F)(F)F)C3)cc2Cl)CO1 [Compound A116]
≥ 80%: percent effect (mortality or growth inhibition) at 200 ppm [1] | percent control (mortality, anti-feedant effect or growth inhibition) at 12.5 ppm [2] | mortality at 200 ppm [3] | percent effect (mortality or growth inhibition) at 200 ppm [4] | mortality at 200 ppm [5] | percent effect (mortality or growth inhibition) at 200 ppm [6] | mortality at 200 ppm [7] | mortality at 200 ppm [8]

CCOC(=O)N(C)S(=O)(=O)N1CC(NC(=O)c2ccc(C3=NO[C@@](c4cc(Cl)c(F)c(Cl)c4)(C(F)(F)F)C3)cc2C)CO1 (stereo partly shown) [Compound A76]
≥ 80%: percent effect (mortality or growth inhibition) at 200 ppm [1] | percent control (mortality, anti-feedant effect or growth inhibition) at 12.5 ppm [2] | mortality at 200 ppm [3] | percent effect (mortality or growth inhibition) at 200 ppm [4] | mortality at 200 ppm [5] | percent effect (mortality or growth inhibition) at 200 ppm [6] | mortality at 200 ppm [7] | mortality at 200 ppm [8]

CCS(=O)(=O)N1C[C@@H](NC(=O)c2ccc(C3=NO[C@@](c4cc(Cl)c(Cl)c(Cl)c4)(C(F)(F)F)C3)cc2Cl)CO1 [Compound A147, 2-chloro-N-[(4R)-2-ethylsulfonylisoxazolidin-4-yl]-4-[(5S)-5-(3,4,5-trichlorophenyl)-5-(trifluoromethyl)-4H-isoxazol-3-yl]benzamide]
≥ 80%: percent effect (mortality or growth inhibition) at 200 ppm [1] | percent control (mortality, anti-feedant effect or growth inhibition) at 12.5 ppm [2] | mortality at 200 ppm [3] | percent effect (mortality or growth inhibition) at 200 ppm [4] | mortality at 200 ppm [5] | percent effect (mortality or growth inhibition) at 200 ppm [6] | mortality at 200 ppm [7] | mortality at 200 ppm [8]

CCNS(=O)(=O)N1C[C@@H](NC(=O)c2ccc(C3=NO[C@@](c4cc(Cl)c(F)c(Cl)c4)(C(F)(F)F)C3)cc2C)CO1 [Compound A133, 4-[(5S)-5-(3,5-dichloro-4-fluoro-phenyl)-5-(trifluoromethyl)-4H-isoxazol-3-yl]-N-[(4R)-2-(ethylsulfamoyl)isoxazolidin-4-yl]-2-methyl-benzamide]
≥ 80%: percent effect (mortality or growth inhibition) at 200 ppm [1] | percent control (mortality, anti-feedant effect or growth inhibition) at 12.5 ppm [2] | mortality at 200 ppm [3] | percent effect (mortality or growth inhibition) at 200 ppm [4] | mortality at 200 ppm [5] | percent effect (mortality or growth inhibition) at 200 ppm [6] | mortality at 200 ppm [7] | mortality at 200 ppm [8]

Cc1cc(C2=NOC(c3cc(Cl)cc(C(F)(F)F)c3)(C(F)(F)F)C2)ccc1C(=O)NC1CON(S(C)(=O)=O)C1 (stereo not shown) [Compound A62]
≥ 80%: percent effect (mortality or growth inhibition) at 200 ppm [1] | percent control (mortality, anti-feedant effect or growth inhibition) at 12.5 ppm [2] | mortality at 200 ppm [3] | percent effect (mortality or growth inhibition) at 200 ppm [4] | mortality at 200 ppm [5] | percent effect (mortality or growth inhibition) at 200 ppm [6] | mortality at 200 ppm [7] | mortality at 200 ppm [8]

CCNS(=O)(=O)N1C[C@@H](NC(=O)c2ccc(C3=NO[C@@](c4cc(Cl)cc(C(F)(F)F)c4)(C(F)(F)F)C3)cc2Cl)CO1 [Compound A128]
≥ 80%: percent effect (mortality or growth inhibition) at 200 ppm [1] | percent control (mortality, anti-feedant effect or growth inhibition) at 12.5 ppm [2] | mortality at 200 ppm [3] | percent effect (mortality or growth inhibition) at 200 ppm [4] | mortality at 200 ppm [5] | percent effect (mortality or growth inhibition) at 200 ppm [6] | mortality at 200 ppm [7] | mortality at 200 ppm [8]

Cc1cc(C2=NO[C@@](c3cc(Cl)c(Cl)c(Cl)c3)(C(F)(F)F)C2)ccc1C(=O)N[C@H]1CON(S(C)(=O)=O)C1 [Compound A36]
≥ 80%: percent effect (mortality or growth inhibition) at 200 ppm [1] | percent control (mortality, anti-feedant effect or growth inhibition) at 12.5 ppm [2] | mortality at 200 ppm [3] | percent effect (mortality or growth inhibition) at 200 ppm [4] | mortality at 200 ppm [5] | percent effect (mortality or growth inhibition) at 200 ppm [6] | mortality at 200 ppm [7] | mortality at 200 ppm [8]

CCS(=O)(=O)N1CC(NC(=O)c2ccc(C3=NO[C@@](c4cc(Cl)c(Cl)c(Cl)c4)(C(F)(F)F)C3)cc2C)CO1 (stereo partly drawn) [Compound A27, N-(2-ethylsulfonylisoxazolidin-4-yl)-2-methyl-4-[(5S)-5-(3,4,5-trichlorophenyl)-5-(trifluoromethyl)-4H-isoxazol-3-yl]benzamide]
≥ 80%: percent effect (mortality or growth inhibition) at 200 ppm [1] | percent control (mortality, anti-feedant effect or growth inhibition) at 12.5 ppm [2] | mortality at 200 ppm [3] | percent effect (mortality or growth inhibition) at 200 ppm [4] | mortality at 200 ppm [5] | percent effect (mortality or growth inhibition) at 200 ppm [6] | mortality at 200 ppm [7] | mortality at 200 ppm [8]
